What was measured:
[1] = target: 5-hydroxytryptamine receptor 2A (Homo sapiens, UniProt P28223); type: functional, cell-based
[2] = target: Beta-1 adrenergic receptor (Homo sapiens, UniProt P08588); type: functional, cell-based
Androgen receptor [3] = target: T1, Androgen receptor (Rattus norvegicus, UniProt P15207); type: functional
T1 sequence (P15207 whole entry): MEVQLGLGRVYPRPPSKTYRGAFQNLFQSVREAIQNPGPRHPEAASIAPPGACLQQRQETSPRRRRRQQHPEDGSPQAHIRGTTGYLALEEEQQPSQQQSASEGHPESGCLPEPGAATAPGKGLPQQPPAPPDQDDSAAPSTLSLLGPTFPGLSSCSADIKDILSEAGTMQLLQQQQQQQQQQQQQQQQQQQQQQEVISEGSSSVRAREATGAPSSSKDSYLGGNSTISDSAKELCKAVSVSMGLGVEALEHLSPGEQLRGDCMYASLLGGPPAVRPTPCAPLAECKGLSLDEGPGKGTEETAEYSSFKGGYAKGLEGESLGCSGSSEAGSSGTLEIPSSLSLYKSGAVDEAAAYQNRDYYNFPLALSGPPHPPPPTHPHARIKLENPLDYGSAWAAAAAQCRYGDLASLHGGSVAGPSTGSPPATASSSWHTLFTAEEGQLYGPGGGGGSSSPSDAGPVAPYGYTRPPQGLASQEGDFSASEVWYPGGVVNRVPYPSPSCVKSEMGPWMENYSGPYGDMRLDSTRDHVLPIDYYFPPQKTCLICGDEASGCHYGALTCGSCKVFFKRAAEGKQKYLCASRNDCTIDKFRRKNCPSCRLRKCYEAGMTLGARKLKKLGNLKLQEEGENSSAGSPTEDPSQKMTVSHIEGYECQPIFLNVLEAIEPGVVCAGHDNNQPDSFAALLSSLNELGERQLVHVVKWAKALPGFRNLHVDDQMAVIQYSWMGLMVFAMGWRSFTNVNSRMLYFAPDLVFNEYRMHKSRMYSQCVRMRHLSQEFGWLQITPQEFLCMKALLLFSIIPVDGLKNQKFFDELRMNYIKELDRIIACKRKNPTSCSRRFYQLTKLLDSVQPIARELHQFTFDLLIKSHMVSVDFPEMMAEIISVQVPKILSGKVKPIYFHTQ

Androgen receptor [4] = target: T1, Androgen receptor; type: functional; remark: listed apart in the source
Mu-type opioid receptor = Mu-type opioid receptor (Homo sapiens, UniProt P35372)
Mu-type opioid receptor, sequence (P35372 whole entry): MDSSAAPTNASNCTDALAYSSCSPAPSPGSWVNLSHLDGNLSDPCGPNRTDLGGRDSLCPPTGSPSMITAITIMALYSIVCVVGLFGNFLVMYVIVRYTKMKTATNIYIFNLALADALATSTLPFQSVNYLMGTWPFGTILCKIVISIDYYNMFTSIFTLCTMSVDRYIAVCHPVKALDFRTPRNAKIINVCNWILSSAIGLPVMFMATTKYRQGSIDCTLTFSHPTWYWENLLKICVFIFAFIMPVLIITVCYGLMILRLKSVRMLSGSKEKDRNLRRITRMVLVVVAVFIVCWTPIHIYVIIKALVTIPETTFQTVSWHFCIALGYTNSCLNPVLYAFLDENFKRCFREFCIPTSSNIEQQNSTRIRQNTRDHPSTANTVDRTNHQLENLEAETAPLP

[5] = target: T2, 5-hydroxytryptamine receptor 1A (Homo sapiens, UniProt P08908)
T2 sequence (P08908 whole entry): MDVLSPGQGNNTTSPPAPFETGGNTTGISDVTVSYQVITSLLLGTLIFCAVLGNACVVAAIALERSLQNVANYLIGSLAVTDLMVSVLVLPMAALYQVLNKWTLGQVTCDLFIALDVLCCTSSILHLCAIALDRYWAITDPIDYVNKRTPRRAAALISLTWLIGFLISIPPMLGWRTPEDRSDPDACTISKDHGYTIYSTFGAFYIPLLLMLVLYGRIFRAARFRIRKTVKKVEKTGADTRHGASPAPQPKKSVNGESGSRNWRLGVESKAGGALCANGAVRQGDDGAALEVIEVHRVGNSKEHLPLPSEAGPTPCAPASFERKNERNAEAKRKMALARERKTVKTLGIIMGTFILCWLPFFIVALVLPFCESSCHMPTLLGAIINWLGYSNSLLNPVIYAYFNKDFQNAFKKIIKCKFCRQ

[6] = target: Beta-3 adrenergic receptor (Homo sapiens, UniProt P13945)
Beta-3 adrenergic receptor, sequence (P13945 whole entry): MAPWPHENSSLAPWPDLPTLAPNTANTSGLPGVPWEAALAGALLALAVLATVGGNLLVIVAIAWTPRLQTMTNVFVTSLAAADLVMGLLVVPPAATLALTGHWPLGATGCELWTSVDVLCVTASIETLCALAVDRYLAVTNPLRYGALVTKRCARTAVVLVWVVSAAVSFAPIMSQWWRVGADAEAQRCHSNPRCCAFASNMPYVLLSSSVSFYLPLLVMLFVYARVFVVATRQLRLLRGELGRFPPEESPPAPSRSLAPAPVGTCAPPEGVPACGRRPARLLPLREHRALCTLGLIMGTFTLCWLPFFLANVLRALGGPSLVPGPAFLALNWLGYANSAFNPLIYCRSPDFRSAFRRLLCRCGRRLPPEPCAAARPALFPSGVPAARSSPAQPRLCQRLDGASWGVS

[7] = target: T3, Muscarinic acetylcholine receptor M2 (Homo sapiens, UniProt P08172)
T3 sequence (P08172 whole entry): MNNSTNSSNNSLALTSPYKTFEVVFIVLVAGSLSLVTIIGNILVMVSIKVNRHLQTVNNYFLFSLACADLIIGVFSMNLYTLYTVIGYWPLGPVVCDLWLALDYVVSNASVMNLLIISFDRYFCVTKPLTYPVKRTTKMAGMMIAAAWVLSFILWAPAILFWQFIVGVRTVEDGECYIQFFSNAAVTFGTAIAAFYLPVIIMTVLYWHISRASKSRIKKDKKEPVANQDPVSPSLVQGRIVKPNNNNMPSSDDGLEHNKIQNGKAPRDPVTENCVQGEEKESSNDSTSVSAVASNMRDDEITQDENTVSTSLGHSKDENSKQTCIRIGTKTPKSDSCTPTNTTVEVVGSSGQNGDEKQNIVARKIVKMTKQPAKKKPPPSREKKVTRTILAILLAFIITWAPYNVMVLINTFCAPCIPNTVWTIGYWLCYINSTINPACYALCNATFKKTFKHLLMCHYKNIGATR

Progesterone receptor = target: T4, Progesterone receptor (Homo sapiens, UniProt P06401)
T4 sequence (P06401 whole entry): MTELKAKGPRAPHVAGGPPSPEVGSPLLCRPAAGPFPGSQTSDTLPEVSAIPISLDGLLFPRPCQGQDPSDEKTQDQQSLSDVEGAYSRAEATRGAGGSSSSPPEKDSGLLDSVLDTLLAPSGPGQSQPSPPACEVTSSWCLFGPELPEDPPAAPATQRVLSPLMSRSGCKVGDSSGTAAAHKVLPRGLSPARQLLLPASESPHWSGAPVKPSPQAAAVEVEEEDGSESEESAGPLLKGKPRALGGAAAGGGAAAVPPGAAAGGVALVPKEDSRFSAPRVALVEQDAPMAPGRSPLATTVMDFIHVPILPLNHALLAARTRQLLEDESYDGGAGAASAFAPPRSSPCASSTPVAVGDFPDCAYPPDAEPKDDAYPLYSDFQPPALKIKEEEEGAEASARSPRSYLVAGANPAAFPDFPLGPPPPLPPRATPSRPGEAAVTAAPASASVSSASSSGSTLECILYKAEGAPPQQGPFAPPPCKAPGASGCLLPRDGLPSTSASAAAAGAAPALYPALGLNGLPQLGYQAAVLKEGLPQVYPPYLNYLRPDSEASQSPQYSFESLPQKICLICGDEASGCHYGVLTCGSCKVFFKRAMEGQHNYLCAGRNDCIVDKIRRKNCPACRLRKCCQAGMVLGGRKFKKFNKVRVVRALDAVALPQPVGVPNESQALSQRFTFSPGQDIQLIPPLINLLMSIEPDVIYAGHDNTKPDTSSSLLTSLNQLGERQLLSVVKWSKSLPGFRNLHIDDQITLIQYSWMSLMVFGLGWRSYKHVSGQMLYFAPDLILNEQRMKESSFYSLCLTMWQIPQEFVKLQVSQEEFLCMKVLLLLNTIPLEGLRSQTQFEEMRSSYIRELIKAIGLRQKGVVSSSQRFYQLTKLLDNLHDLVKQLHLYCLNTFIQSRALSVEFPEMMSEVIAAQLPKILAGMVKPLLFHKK
Also: assay procedure not described here.

Beta-1 adrenergic receptor, sequence (P08588 whole entry): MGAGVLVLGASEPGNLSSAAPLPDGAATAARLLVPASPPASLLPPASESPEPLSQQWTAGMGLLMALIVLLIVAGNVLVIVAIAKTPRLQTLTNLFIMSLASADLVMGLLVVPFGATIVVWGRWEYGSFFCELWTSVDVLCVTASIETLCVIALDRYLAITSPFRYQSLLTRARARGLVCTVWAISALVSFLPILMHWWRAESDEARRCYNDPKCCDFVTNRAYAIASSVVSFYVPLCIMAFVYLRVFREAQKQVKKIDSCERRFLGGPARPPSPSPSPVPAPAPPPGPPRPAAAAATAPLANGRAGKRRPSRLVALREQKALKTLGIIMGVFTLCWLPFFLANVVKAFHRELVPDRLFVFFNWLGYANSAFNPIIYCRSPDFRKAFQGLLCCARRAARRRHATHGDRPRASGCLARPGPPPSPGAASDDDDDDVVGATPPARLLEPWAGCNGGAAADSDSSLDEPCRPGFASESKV
5-hydroxytryptamine receptor 2A, sequence (P28223 whole entry): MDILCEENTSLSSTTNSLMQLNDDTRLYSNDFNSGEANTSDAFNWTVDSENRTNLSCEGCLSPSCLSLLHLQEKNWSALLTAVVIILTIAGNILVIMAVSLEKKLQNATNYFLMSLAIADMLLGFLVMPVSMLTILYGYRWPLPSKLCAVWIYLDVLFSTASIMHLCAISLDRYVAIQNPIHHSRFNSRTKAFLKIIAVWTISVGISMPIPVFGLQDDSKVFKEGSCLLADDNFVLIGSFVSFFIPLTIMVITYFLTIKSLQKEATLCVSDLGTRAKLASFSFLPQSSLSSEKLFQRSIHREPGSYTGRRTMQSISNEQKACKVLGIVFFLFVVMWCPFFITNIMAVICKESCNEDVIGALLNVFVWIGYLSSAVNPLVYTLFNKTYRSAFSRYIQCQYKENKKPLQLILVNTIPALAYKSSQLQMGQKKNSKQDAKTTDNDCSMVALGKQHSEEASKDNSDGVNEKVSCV

## CCOC(=O)O[C@]1(C(=O)OCCl)CC[C@H]2[C@@H]3CCC4=CC(=O)C=C[C@]4(C)[C@H]3[C@@H](O)C[C@@]21C [LOTEPREDNOL ETABONATE]
[1]
  AC50: > 30 µM

## CC(=O)O[C@H](CC(=O)[O-])C[N+](C)(C)C [ACETYLCARNITINE]
[1]
  AC50: > 30 µM
[2]
  AC50: > 30 µM

## CCCCCCCCCCCCCCCCCCCCCC(=O)Nc1ccn([C@@H]2O[C@H](CO)[C@@H](O)[C@@H]2O)c(=O)n1 [ENOCITABINE]
Androgen receptor [3]
  AC50: > 30 µM
[1]
  AC50: > 30 µM
Androgen receptor [4]
  AC50: > 30 µM

## OCc1cc(C(O)CNCCCCCCOCCCCc2ccccc2)ccc1O (centres undefined) [SALMETEROL]
Mu-type opioid receptor
  AC50: > 30 µM

## CCN(CC)CCN1C(=O)CN=C(c2ccccc2F)c2cc(Cl)ccc21 [FLURAZEPAM]
[5]
  AC50: 5.47 µM
Mu-type opioid receptor
  AC50: > 30 µM

## O=C(O)c1ccccc1Nc1cc(Cl)ccc1C(=O)O [LOBENZARIT]
[1]
  AC50: > 30 µM
[2]
  AC50: > 30 µM

## CN(C(=O)c1c(O)c2ccccc2n(C)c1=O)c1ccccc1 [ROQUINIMEX]
[1]
  AC50: > 30 µM

## Cn1c(=O)cc(N2CCC[C@@H](N)C2)n(Cc2ccccc2C#N)c1=O [ALOGLIPTIN]
[6]
  AC50: > 30 µM
[7]
  AC50: > 10 µM
[5]
  AC50: > 10 µM
Progesterone receptor
  AC50: > 30 µM
Mu-type opioid receptor
  AC50: 8.8 µM

## O=C1CN=C(c2ccccc2)c2cc([N+](=O)[O-])ccc2N1 [NITRAZEPAM]
Mu-type opioid receptor
  AC50: > 30 µM

## Oc1ccc2c(c1)[C@@]13CCCC[C@@]1(O)[C@@H](C2)N(CC1CCC1)CC3 [BUTORPHANOL]
Androgen receptor [3]
  AC50: > 30 µM
[1]
  AC50: > 30 µM
Androgen receptor [4]
  AC50: > 30 µM

## CC(=O)[C@]1(O)Cc2c(O)c3c(c(O)c2[C@@H](O[C@H]2C[C@H](N)[C@H](O)[C@H](C)O2)C1)C(=O)c1ccccc1C3=O [IDARUBICIN]
Androgen receptor [3]
  AC50: 17 µM

## CCC(COC(=O)c1cc(OC)c(OC)c(OC)c1)(c1ccccc1)N(C)C (centres undefined) [TRIMEBUTINE]
[1]
  AC50: > 30 µM
[2]
  AC50: > 30 µM

## COc1cc2ncnc(Nc3ccc(F)c(Cl)c3)c2cc1NC(=O)/C=C/CN1CCCCC1 [DACOMITINIB ANHYDROUS]
[1]
  AC50: > 30 µM

## C=C1/C(=C\C=C2/CCC[C@]3(C)[C@@H]([C@H](C)/C=C/[C@@H](O)C4CC4)CC[C@@H]23)C[C@@H](O)C[C@@H]1O [CALCIPOTRIENE]
Androgen receptor [3]
  AC50: > 30 µM
[1]
  AC50: > 30 µM
[5]
  AC50: > 30 µM
Androgen receptor [4]
  AC50: 28 µM

## Nc1cc(-c2ccncc2)c[nH]c1=O [INAMRINONE]
Progesterone receptor
  AC50: > 20 µM
Mu-type opioid receptor
  AC50: > 30 µM

## O=C(O)CCNC(=O)c1ccccc1 [BETAMIPRON]
[2]
  AC50: > 30 µM

## C=C[C@@]1(C)CC(=O)[C@]2(O)[C@@]3(C)[C@@H](O)CCC(C)(C)[C@@H]3[C@H](O)[C@H](OC(C)=O)[C@@]2(C)O1 [COLFORSIN]
[1]
  AC50: 18 µM

## COc1cc2c(cc1OC)C(CCc1ccc(Cl)cc1)N(C)CC2 (centres undefined) [METHOPHOLINE]
[1]
  AC50: > 10 µM
Mu-type opioid receptor
  AC50: > 30 µM

## C/C(=C\C(=O)OCCCCCCCCC(=O)O)C[C@@H]1OC[C@H](C[C@@H]2O[C@H]2[C@@H](C)[C@H](C)O)[C@@H](O)[C@H]1O [MUPIROCIN]
Mu-type opioid receptor
  AC50: > 30 µM

## CC(=O)OCC(=O)[C@@]1(O)[C@H](C)C[C@H]2[C@@H]3CCC4=CC(=O)C=C[C@]4(C)[C@@]3(F)[C@@H](O)C[C@@]21C [DEXAMETHASONE ACETATE]
[6]
  AC50: > 30 µM
[7]
  AC50: > 10 µM
[5]
  AC50: > 10 µM
Progesterone receptor
  AC50: > 30 µM
Mu-type opioid receptor
  AC50: > 30 µM

## C#CCOc1ccc(N)cc1C(=O)NCCCC [PARSALMIDE]
Androgen receptor [3]
  AC50: > 30 µM
[1]
  AC50: 30 µM
Androgen receptor [4]
  AC50: > 30 µM

## COc1ccc(-c2noc(CC(=O)O)c2-c2ccc(OC)cc2)cc1 [MOFEZOLAC]
Androgen receptor [3]
  AC50: > 30 µM
[1]
  AC50: > 30 µM
[2]
  AC50: > 30 µM
Androgen receptor [4]
  AC50: > 30 µM

## Cn1cnc2c(F)c(Nc3ccc(Br)cc3Cl)c(C(=O)NOCCO)cc21 [SELUMETINIB]
[6]
  AC50: > 30 µM
[7]
  AC50: > 10 µM
[5]
  AC50: > 10 µM
Progesterone receptor
  AC50: > 30 µM
Mu-type opioid receptor
  AC50: > 30 µM

## CCN(CC)C(=O)Nc1ccc(OCC(O)CNC(C)(C)C)c(C(C)=O)c1 (centres undefined) [CELIPROLOL]
Androgen receptor [3]
  AC50: > 30 µM
[1]
  AC50: > 30 µM
[2]
  AC50: > 30 µM
Androgen receptor [4]
  AC50: > 30 µM

## O=C1CN=C(c2ccccn2)c2cc(Br)ccc2N1 [BROMAZEPAM]
[1]
  AC50: > 10 µM
Mu-type opioid receptor
  AC50: > 30 µM

## C[N@+]1(CCF)[C@@H]2CC[C@H]1C[C@@H](OC(=O)C(O)(c1ccccc1)c1ccccc1)C2
[1]
  AC50: > 30 µM
[7]
  AC50: 0.2 µM

## Cc1ncc2n1-c1ccc(Cl)cc1C(c1ccccc1F)=NC2 [MIDAZOLAM]
[5]
  AC50: > 10 µM
Progesterone receptor
  AC50: > 30 µM
Mu-type opioid receptor
  AC50: > 30 µM

## CC(=O)SC[C@@H](C)C(=O)N1CCC[C@H]1C(=O)N[C@@H](Cc1ccccc1)C(=O)O
[1]
  AC50: > 30 µM

## COc1ccc2nc3cc(Cl)ccc3c(Nc3cc(CN4CCCC4)c(O)c(CN4CCCC4)c3)c2n1 [PYRONARIDINE]
Androgen receptor [3]
  AC50: > 30 µM
[1]
  AC50: > 30 µM
Androgen receptor [4]
  AC50: > 10 µM

## NC1CCN(c2nc3c(cc2F)c(=O)c(C(=O)O)cn3-c2ccc(F)cc2F)C1 (centres undefined) [TOSUFLOXACIN]
Androgen receptor [3]
  AC50: > 30 µM
Androgen receptor [4]
  AC50: > 30 µM

## CC(=O)[C@@]1(O)CC[C@H]2[C@@H]3C=C(Cl)C4=CC(=O)[C@@H]5C[C@@H]5[C@]4(C)[C@H]3CC[C@@]21C [CYPROTERONE]
[1]
  AC50: > 10 µM
Mu-type opioid receptor
  AC50: > 30 µM

## CCCCCC(=O)O[C@]1(C(C)=O)CC[C@H]2[C@@H]3CCC4=CC(=O)CC[C@]4(C)[C@H]3CC[C@@]21C [HYDROXYPROGESTERONE CAPROATE]
[1]
  AC50: > 30 µM

## CC1=C(C)C(=O)C(C(CCCCCC(=O)O)c2ccccc2)=C(C)C1=O (centres undefined) [SERATRODAST]
[1]
  AC50: > 30 µM
